What was measured:
[1] = test system: male TH mice; conditions: oral 5 mg/kg once a day for 4 weeks, femur of 8-week-old mouse, micro-CT (FIG. 19)
Description: Thereafter, the bone mineral density and the bone mineral content of the femur and the thickness and the bone mineral density of the skull were measured as described in Examples 2 and 3. […] The TH mice and B6 mice were sacrificed with carbon dioxide. The femurs thereof were extracted and scanned 400 times with a thickness of […] using eXplore Locus micro-CT (GE Healthcare, USA) which is devised as a tomographic apparatus for small animals. The scanned images were accurately reformed using Microview (GE Healthcare, USA) to obtain final histomorphological images of the femurs.

[2] = test system: OPG; conditions: cells separated from bone marrow of treated TH mice and cultured, RT-PCR; vs vehicle (FIG. 21)
Description: (§1) After separating mRNA from the cell of FIG. 4, the expression levels of the genes related to the differentiation of osteoblast and osteoclast and cytokines were analyzed. The total RNA was obtained from the Extraction Kit (Intron, Seongnam, Korea) according to the manufacturer's protocol. The separated RNA was weighed by measuring the absorbance. The reverse transcription PCR (RT-PCR) was performed using primers listed in Table 1 under the following conditions to examine the expression level of each of the genes.
(§2) Reverse Transcription System (Promega, USA) was added with total RNA 1 μg, 10 mM dNTP 2 μl, 100 pmole Oligo dT 1 μl, 10×buffer 2 μl, 25 mM MgCl2 4 μl, RNase inhibitor 0.2 μl, AMV RTase 0.2 μl, and DEPC-treated water, and cultured at 42° C. for 60 minutes and at 72° C. for 10 minutes to prepare cDNA. Then, the reverse transcripted cDNA sample was amplified using primer pairs specific to respective target genes. The PCR was repeated 25-30 times after denaturation at 95° C. for 5 minutes. In specific, the PCR was performed under the condition of denaturation at 95° C. for 30 seconds, primer annealing at 55° C. (NPY1receptor), 56° C.
(§3) Thereafter, the bone mineral density and the bone mineral content of the femur and the thickness and the bone mineral density of the skull were measured as described in Examples 2 and 3.

[3] = test system: RANKL; conditions: cells separated from bone marrow of treated TH mice and cultured, RT-PCR; vs vehicle (FIG. 21)
Description: as §1, §2, §3

[4] = test system: IL-6; conditions: male TH mice, oral 5 mg/kg once a day for 4 weeks; ELISA (FIG. 20)
Description: as §3
Meanwhile, after separating the blood serum, IL-6 level was measured using ELISA Kit (ALPCO diagnostics, USA).

[5] = test system: male TH mice; assay: Micro-CT bone mineral density, bone mineral content and skull thickness in drug-treated male TH mice; format: in vivo, mouse
Description: Control mice (C57BL/6) and TH mice were freely fed, and their bone mineral densities were measured every week from 4 week age to 20 week age after delectation. The mice were anesthetized with Avertin (2,2,2-tribromoethanol) to keep them alive while measuring their bone mineral densities. […] Thereafter, the resulting images were reformed using Microview (GE Healthcare, USA) to obtain the final bone mineral density (BMD) and the final bone mineral content (BMC) (see FIG. 2).
Control mice (C57BL/6) and TH mice were fed freely. […] Thereafter, the bone thicknesses and the bone mineral densities of the extracted skulls were measured as described in Example 2, using a tomographic apparatus (micro-CT) for animals.
8-week-old male TH mice were orally administered with parathyroid hormone (hPTH(1-34), Sigma, USA), which is started to be used as an osteoporosis medicine increasing the bone mineral content, with a concentration of 50 μg/kg, once a day for 4 weeks.

Compound | histomorphological images of the femurs (recovering the bone loss) [1] | OPG gene expression [2] | RANKL gene expression [3] | IL-6 level in blood serum [4] | bone mineral contents in the femurs ([5]; 4-week-old male TH mice, oral 5 mg/kg once a day for 4 weeks, vs 8-week-old TH mice treated with vehicle only (FIG. 16)) | thicknesses of the skulls ([5]; 4-week-old male TH mice, oral 5 mg/kg once a day for 4 weeks, vs TH mice vehicle (FIG. 17)) | bone mineral densities ([5]; 8-week-old male TH mice, 50 μg/kg once a day for 4 weeks, orally administered (so in the source), femur, vs 12-week-old TH mice treated with vehicle only (FIG. 22)) | bone mineral contents ([5]; 8-week-old male TH mice, 50 μg/kg once a day for 4 weeks, orally administered (so in the source), femur, vs 12-week-old TH mice treated with vehicle only (FIG. 23))
NCCCC(O)(P(=O)(O)O)P(=O)(O)O [alendronate] | filled with trabeculars | increased | decreased | low IL-6 level | significantly recovered | significantly recovered |  | 
parathyroid hormone (hPTH(1-34) (SVSEIQLMHNLGKHLNSMERVEWLRKKLQDVHNF; Parathyroid hormone; UniProt P01270 32-65, looked up, fragment) [parathyroid hormone hPTH(1-34), Sigma; osteoporosis medicine increasing the bone mineral content] |  |  |  |  |  |  | significantly recovered | significantly recovered
